In one data set the test system is clinically normal dogs. Put plainly: Antibody response of dogs injected with SpEX-M (ELISA). Type of data set: in vivo, dog. The settings on record: 20 μg subcutaneous, three weekly injections; sera days −7, 8, 15, 29; versus pre-injection sera. The procedure:
Recombinant SpEX-M (SEQ ID NO:12) produced in E. coli was purified using affinity chromatography (as above) and endotoxin concentration was measured using a ToxinSensor™ Chromogenic LAL Endotoxin Assay Kit (Genscript, Cat. No. L00350). Recombinant SpEX-M at 20 μg each/0.5 cc in phosphate buffered saline (PBS) (pH 7.2) were injected in the lateral thorax by the subcutaneous route, into three clinically normal dogs. Injections were given once every 7 days for a total of three injections with a control dog receiving PBS (pH 7.2) only. Blood (6 cc) was collected from a jugular vein 4 times, on days −7, 8, 15 and 29 (relative to injections). […]
For measurement of recombinant protein antigenicity, SpEX and SpEX-M were coated separately onto ELISA plates (Corning, Cat No. 3590) at 2 μg/ml in PBS. The plates were washed with 0.05% PBS-T and incubated with two-fold serial diluted serum from dogs (injected with recombinant proteins) for 1 h at 37° C., then bound IgG was detected using HRP-conjugated goat anti-dog IgG-heavy and light chain (Bethyl Laboratories, Inc. Cat No. A40-123-1). ELISA assays plates were washed three times with PBS-T between all incubations, bound antibodies were detected using TMB substrate (Thermo Scientific, Cat No. N301), reactions were stopped with 0.18 M sulphuric acid and optical density read at 450 nm on a plate reader (Bio TEK, EL800). […]

A further data set deals with canine PBMCs. Put plainly: PBMCs permeability assay (Sytox green). Type of data set: cell-based, dog. The conditions noted are these: 100 μg, 30 min, relative to SpEX. The procedure:
(§1) PMNs and PBMCs were separated as previously described. PMNs and PBMCs were incubated with recombinant proteins (SpEX and SpEX-M) at concentration of 100 μg in a volume of 500 μl in RPMI medium supplemented with 10% fetal bovine serum in a 5% CO2 incubator for 30 min. The supernatant of S. pseudintermedius 06-3228 was harvested at log phase to test the toxic effect of secreted SpEX. PMNs and PBMCs were stained with 1 Sytox green (Life Technologies, Inc. Cat No. 1776406) for 30 min, washed twice with PBS (pH 7.2) and analyzed using a flow cytometer (Attune acoustic focusing cytometer) by gating on PMNs and PBMCs based on their side and forward scatter properties.
(§2) To determine the protective effect of canine anti-SpEX-M on PMNs and PBMCs, recombinant S. pseudintermedius SpEX at concentration of 100 μg/ml in PBS (pH 7.2) was incubated for 30 minutes at 37° C. with serum from SpEX-M injected dogs. The experiment was run in duplicate and a p-value of <0.05 was considered significant.
(§3) For flow cytometry analysis the cut-off for cell death was established using leukocytes incubated without SpEX. Mean fluorescent intensity was determined from all gated cells.

In data set [1] the test system is canine PMNs. Briefly: PMNs permeability assay (Sytox green). Type of data set: cell-based, dog. The settings on record: 100 μg, 30 min, relative to SpEX. The procedure:
as §1, §2, §3

In data set [2] the test system is canine PMNs. Put plainly: Binding of biotin labelled wild type and attenuated LukS and LukF to canine PMNs. The class given is cell-based, dog. The conditions noted are these: biotin labelled proteins, 30 minutes. As to the method:
Purified recombinant S. pseudintermedius wild type and attenuated LukS and LukF at 500 μg/ml in PBS (pH 7.2) were incubated with 50 μl of 10 mM EZ-Link Sulfo-NHS-LC-Biotin reagent (equal to 20-fold molar excess of biotin) (Thermo Scientific, Cat No. 21327) for 30 min at room temperature. Excess biotin was removed using an Amicon Ultra-0.5 Centrifugal Filter Unit with a 30 kDa molecular weight cut-off (Milipore sigma, Cat No. UFC5030). The biotin-labeled proteins were stored at −20° C. until further use.
To test the binding of wild type and attenuated LukS and LukF to canine PMNs, biotin labelled recombinant proteins were incubated with PMNs from a clinical healthy dog for 30 minutes at room temperature, the cells were washed, then PMNs were incubated with 1:500 dilution of avidin-FITC conjugate (Sigma-Aldrich, A2050) at room temperature for 30 minutes in the dark. Unbound conjugate was removed by washing and the amount of binding was determined using a flow cytometer (Attune acoustic focusing cytometer) by gating on PMNs based on their side and forward scatter properties.

In a further data set the test system is dog IgA. Put plainly: ELISA reactivity with dog IgA. Type of data set: binding. The conditions noted are these: compared to SpsQ and SpA. The procedure:
(§4) To test the reactivity of serum from a dog with chronic pyoderma, S. aureus SpA and S. pseudintermedius SpsQ and SpsQ-M were coated on ELISA plates (Corning, USA Cat No. 3590) at 2 μg/ml in PBS. They were incubated with serum at a dilution of 1:2000. Bound IgG, IgM, and IgA were detected by HRP-goat anti-dog IgG-heavy and light chain (Bethyl Laboratories, Inc., USA Cat No. A40-123-1), HRP-goat anti-dog IgM μ chain (Bethyl Laboratories, Inc., USA Cat No. A40-116-2), HRP-goat anti-dog IgA (Bethyl Laboratories, Inc., USA Cat No. A40-104P) at a dilution of 1:8000 in PBS-T. Dog whole IgG molecule (Rockland, USA Cat No. 004-0102-1000) was used for comparison to measure non-specific IgG binding.
Background: An ELISA detects its analyte on a solid surface through an enzyme-linked reagent.

For data set [3], the system named is canine B cells. Put plainly: B cell apoptosis (annexin, flow cytometry). The conditions noted are these: 1.5 h. The class given is cell-based, dog. The procedure:
(§5) A total of 100 μg of purified recombinant SpsQ or SpsQ-M was mixed with isolated peripheral blood mononuclear cells (PBMC) in 1 ml of RPMI medium supplemented with 10% fetal bovine serum and incubated for 1.5 h at 37° C. in a 5% CO2 incubator. To detect early phases of B cell apoptosis, phosphatidylserine was measured on the surface of cells using pacific blue-conjugated annexin (Thermo Scientific, USA Cat No. A35136). B cells were identified using phycoerythrin (PE) conjugated mouse anti-canine CD21 (clone: CA2.1D6) (BIO-RAD, USA Cat No. MCA1781PE) that recognizes canine CD21 (complement receptor type 2) on mature B lymphocytes. Stained B cells were analyzed using a flow cytometer (Attune acoustic focusing cytometer). B cells were also incubated with the same recombinant proteins as described above but for 3.5 h in order to detect B cell death. Cells were stained with Sytox green (Life Technologies, Inc., USA Cat No. 1776406) and PE-conjugated mouse anti-canine CD21. Gates were placed on cells positive for PE and these B cells were analyzed by flow cytometry.
(§6) For flow cytometry analysis the cut-off for apoptosis or cell death was established using leukocytes incubated without SpsQ. Mean fluorescent intensity was determined from all B cells.

Data set [4] concerns chicken anti-protein A antibody. Briefly: ELISA antigenicity with HRP-chicken anti-protein A antibody. The class given is binding. The settings on record: coated protein. The procedure: For measurement of the antigenicity of recombinant proteins, affinity-purified SpsQ and SpsQ-M were coated on ELISA plates (Corning, USA Cat No. 3590) at […] in PBS (pH 7.2). The plates were washed with PBS-T and incubated with HRP-chicken anti-protein A antibody (Gallus Immunotech, USA Cat No. APA) for 1 h at 37° C., then washed. For this and all subsequent ELISA assays, plates were washed three times with PBS-T between all incubations, bound antibodies were detected using TMB substrate (Thermo Scientific, USA Cat No. N301), reactions were stopped with 0.18 M sulphuric acid and optical density read at 450 nm on a plate reader (Bio TEK, USA Cat No. EL800). The experiment was repeated at least three times and a p-value of <0.05 was considered significant, which was the same for all the experiments unless mentioned otherwise.

The test system of a further data set is dog IgM. Briefly: ELISA reactivity with dog IgM. The class given is binding. The conditions noted are these: compared to SpsQ and SpA. As to the method:
as §4

The subject of data set [5] is canine B cells. Briefly: B cell death (Sytox green, flow cytometry). Type of data set: cell-based, dog. The settings on record: 3.5 h incubation; ± SEM. As to the method: as §5, §6
The test system of another data set is dog IgG. Put plainly: ELISA reactivity with dog serum / dog IgG. Type of data set: binding. The conditions noted are these: compared to SpsQ and SpA. As to the method: as §4
The test system of data set [6] is canine blood PMNs. Briefly: Phagocytosis of pHrodo-labeled S. pseudintermedius 08-1661 in dog blood (flow cytometry). Type of data set: cell-based. The settings on record: 37° C., adenosine 15 μM, ADP analogue 500 μM, A2A receptor antagonist. As to the method:
(§7) Bacteria for the phagocytosis assay were labeled using a pHrodo™ phagocytosis particle labeling kit (Life technologies, P35369) (10). Briefly, overnight cultures of S. pseudintermedius 06-3228 and 08-1661 were diluted 1:100 into fresh TSB and grown for 3 hours at 37° C. Bacteria were centrifuged, washed twice, and diluted to 20 mg/mL wet weight in 0.1 M sodium bicarbonate, pH 8.5, and pHrodo™ dye was dissolved in DMSO at 10 mM. The bacteria were suspended at a final dye concentration of 0.5 mM. The inhibitory effect of SpAdsA on canine neutrophils was evaluated in blood samples by exposing the EDTA-whole blood samples to pHrodo™ dye-labeled S. pseudintermedius 06-3228 and 08-1661 for 30 and 60 minutes at 37° C. The RBCs were lysed using Red Blood Cell Lysing Buffer Hybri-Max™ (Sigma-Aldrich, Cat NO. R7757) followed by centrifugation and washing. The final cell pellet, containing leukocytes, was suspended in wash buffer and analyzed using a flow cytometer equipped with a 488-nm argon ion laser (Attune acoustic focusing cytometry).
On the technique in general: Flow cytometry measures light scatter and fluorescence of single cells or particles in a stream.

In data set [7] the test system is canine blood PMNs. Briefly: Phagocytosis of pHrodo-labeled S. pseudintermedius 06-3228 in dog blood (flow cytometry). Type of data set: cell-based. The settings on record: 37° C., adenosine 15 μM, ADP analogue 500 μM, ZM241385 1 μM. As to the method: as §7
For data set [8], the system named is S. pseudintermedius 08-1661. Briefly: Bacterial survival in canine blood. Type of data set: cell-based, Staphylococcus pseudintermedius. The conditions noted are these: adenosine 15 μM; 5′-(α, β-methylene) diphosphate 500 μM; ZM241385; 1, 1.5, 2 hours; versus bacteria alone. The procedure:
(§8) Overnight cultures of S. pseudintermedius 06-3228 and 08-1661 were diluted 1:100 into fresh TSB and grown for 3 hours at 37° C. Staphylococci were centrifuged 9000×g, washed twice, and diluted in PBS to yield an O.D 600 of 0.5. Then 100 μl of 4×10^6 CFU per ml of bacteria were mixed with 500 μl of fresh canine blood, collected in EDTA. The samples were incubated at 37° C. with 100 rpm shaking and harvested at 60, 90 and 120 minutes. They were incubated on ice for 30 minutes in 1 ml of Red Blood Cell Lysing Buffer Hybri-Max™ (Sigma-Aldrich, Cat NO. R7757), then bacteria were pelleted at 9,000×g at 4° C. and plated on tryptic soy agar (TSA) for enumeration of viable bacteria.

The subject of data set [9] is S. pseudintermedius 06-3228. Briefly: Bacterial survival in canine blood. The class given is cell-based, Staphylococcus pseudintermedius. The settings on record: adenosine 15 μM; 5′-(α, β-methylene) diphosphate 500 μM; ZM241385; 1, 1.5, 2 hours; versus bacteria alone. As to the method:
as §8

Regarding “SpEX-M: attenuated SpEX with substitutions D 102A, T125P, T206P and R217A”, the “IgG against S. pseudintermedius SpEX-M and SpEX in sera of injected dogs” value in the data set with clinically normal dogs is “reached the highest level on day 29”. In addition, the “killing effect on PBMCs of dogs” value in the data set on canine PBMCs is “diminished killing effect”. The “killing effect on PMNs” value with canine PMNs [1] is given as “diminished killing effect”.

For the molecule “LukF-M: attenuated Leukotoxin F with substitutions S59D and N65A”, in the data set with canine PMNs [2], the “binding to canine leukocytes” value is “bound to canine leukocytes without causing any significant killing”.

Consider “SpsQ-M: attenuated non-toxigenic S. pseudintermedius protein A with Q5K, Q6K, D32A, D33A in each Ig binding domain”, for which the “binding to IgA” value in the data set with dog IgA is “significantly lower binding”. Further, the “apoptotic effect on B cells” value in the data set with canine B cells [3] (100 μg protein, PBMC) is reported as “low apoptotic effect”. Besides, in the data set with canine B cells [3], the “mean+/−SEM fluorescent intensity (MFI) difference between SpsQ and SpsQ-M” value is reported as 2052±285.2. In addition, in [4], the “reactivity with chicken anti-protein A (antigenicity)” value is listed as “strong reactivity”. The “binding to IgM” value in the data set on dog IgM is recorded as “significantly lower binding”. Moreover, the “Sytox MFI reduction compared to that of SpsQ” value with canine B cells [5] amounted to 519065±128292. For the same molecule, the “binding to commercial dog IgG” value in the data set with dog IgG is listed as “significantly lower binding”.

With “LukS-M: attenuated Leukotoxin S with substitutions T57F, K128A and S239A”, in the data set on canine PMNs [2], the “binding to canine leukocytes” value is “bound to canine leukocytes without causing any significant killing”.

`Nc1nc(NCCc2ccc(O)cc2)nc2nc(-c3ccco3)nn12` [ZM241385]: the “phagocytosis, mean MFI” value with canine blood PMNs [6] (08-1661, 30 minutes) is on record as 1,306,729; in the data set with canine blood PMNs [6] (08-1661, 60 minutes) it was 2,924,203; in the data set with canine blood PMNs [7] (06-3228, 30 minutes), 241513; in the data set on canine blood PMNs [7] (06-3228, 60 minutes) it was “no significant difference”. Moreover, the “survival of S. pseudintermedius 08-1661 in canine blood” value in [8] was “significantly decreased at all of time points”. Besides, the “survival of S. pseudintermedius 06-3228 in canine blood” value in [9] is “significantly decreased at all of time points”.

`Nc1ncnc2c1ncn2[C@@H]1O[C@H](CO)[C@@H](O)[C@H]1O` [adenosine]: the “phagocytosis, mean MFI” value in the data set with canine blood PMNs [6] (08-1661, 30 minutes) is listed as 375,737; with canine blood PMNs [6] (08-1661, 60 minutes) it was 764,921; in the data set on canine blood PMNs [7] (06-3228, 30 minutes), 89,583; with canine blood PMNs [7] (06-3228, 60 minutes) it was 711,453. In [8], the “survival of S. pseudintermedius 08-1661 in canine blood” value is “significantly promoted”. The “survival of S. pseudintermedius 06-3228 in canine blood” value in data set [9] is given as “significantly promoted”.
